Experimental findings from patent US8163898B2, “4-sulfonylpiperidine derivatives” (MSD K. K., priority 2007, dated 2012) are described below.

The first assay addresses T1, human LCE (Homo sapiens, UniProt Q9H5J4).
T1 sequence (Q9H5J4 1-265): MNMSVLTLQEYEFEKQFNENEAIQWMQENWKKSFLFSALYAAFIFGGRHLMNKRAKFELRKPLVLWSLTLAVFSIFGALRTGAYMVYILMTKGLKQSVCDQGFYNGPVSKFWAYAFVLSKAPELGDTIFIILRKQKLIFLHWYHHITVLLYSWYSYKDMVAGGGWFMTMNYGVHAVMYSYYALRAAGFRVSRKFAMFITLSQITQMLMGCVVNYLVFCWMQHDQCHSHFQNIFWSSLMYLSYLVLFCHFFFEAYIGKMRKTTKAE
Description: LCE enzyme activity inhibition test. The assay is classed as biochemical.
Settings: not given
As to the method:
Pharmacological Test Example 1 (LCE Enzyme Activity Inhibition Test)
A test compound was dissolved in dimethylsulfoxide (DMSO) to 10 mM, and further diluted with DMSO to prepare a 1000-fold concentrated solution, compared with the evaluated concentration. The LCE enzyme activity inhibition test was carried out according to a modification of the method of Moon (J. Biol. Chem., Vol. 276, pp. 45358-45366 (2001)) et al. Specifically, the diluted test compound was added to a 96-well assay plate (Corning, 96-well assay block) at 1.0 μL per well, and then 50 μL of phosphate buffer solution (100 mM potassium phosphate buffer solution (pH 6.5)), 25 μL of substrate solution (100 mM potassium phosphate buffer solution (pH 6.5)), 4.0 μM rotenone, 80 μM fatty acid free bovine serum albumin, 160 μM palmitoyl-CoA 80 μM malonyl-CoA, and 3.5 μM [^14C]-malonyl-CoA (1.92 GBq/mmol, manufactured by Amersham) were added to each well. Further, 25 μL of enzyme solution (100 mM potassium phosphate buffer solution (pH 6.5), 100 μg/mL human LCE) was added thereto. The plate was hermetically closed at the top with a seal, and then incubated with gentle agitation by shaking at 37° C. for 90 minutes. Subsequently, 100 μL of 5N HCl was added to each well, and the assay plate was agitated for 5 minutes at room temperature to stop the enzymatic reaction and also hydrolyze acyl-CoA. Subsequently, the enzymatic reaction solution of each well was adsorbed on each well of a 96-well GF/C filter plate (PerkinElmer, UniFilter 96 GF/C) that had been previously dipped in water. The wells were washed with water to remove unabsorbed malonyl-CoA, and the GF/C filter plate was dried at 50° C. for 60 minutes. Subsequently, 30 μL of scintillator (PerkinElmer, MicroScinti 0) was added to each well, and the plate was sealed at the top. Using a microplate scintillation counter (PerkinElmer, TopCount), the radiation activity of the fixed [^14C] was measured and obtained as the enzyme activity. The human LCE enzyme inhibitory activity of a test compound was calculated based on the radio activity in the well containing test-compound-free DMSO as a control. Compounds of the invention were examined according to this assay.
The IC50 is the concentration that inhibits the measured activity by half. In turn, `O=C(Nc1ccc(C(F)(F)F)cc1)N1C2CCC1CC(S(=O)(=O)c1ccccn1)C2` (centres unmarked) [Example 9, 3-(pyridin-2-ylsulfonyl)-N-[(4-trifluoromethyl)phenyl]-8-azabicyclo[3.2.1]octane-8-carboxamide] returned a concentration for half-maximal inhibition (IC50) of 92 nM.

The same assay, now with this note: human LCE; [14C]-malonyl-CoA and palmitoyl-CoA substrate; 37° C. for 90 minutes; pH 6.5; read-out: IC50.
Regarding `O=C(Nc1ccc(C(F)(F)F)cn1)N1C2CCC1CC(S(=O)(=O)c1ncccn1)C2` (centres unmarked) [Example 35], the IC50 was 194 nM. Turning to `O=C(Nc1ccc(C(F)(F)F)cc1)N1C2CCC1CC(S(=O)(=O)c1ccccc1)C2` (centres unmarked) [Example 1, 3-phenylsulfonyl-N-[(4-trifluoromethyl)phenyl]-8-azabicyclo[3.2.1]octane-8-carboxamide], the IC50 was 98 nM. With `O=C(Nc1ccc(C(F)(F)F)nc1)N1C2CCC1CC(S(=O)(=O)c1ccccc1)C2` (centres unmarked) [Example 32, 3-phenylsulfonyl-N-[6-(trifluoromethyl)pyridin-3-yl]-8-azabicyclo[3.2.1]octane-8-carboxamide], the IC50 came to 127 nM. As for `O=C(Nc1cncc(C(F)(F)F)c1)N1C2CCC1CC(S(=O)(=O)c1ccccc1)C2` (centres unmarked) [Example 33, 3-phenylsulfonyl-N-[5-(trifluoromethyl)pyridin-3-yl]-8-azabicyclo[3.2.1]octane-8-carboxamide], the IC50 stood at 103 nM. On the same count and under the same terms, then `CC(C)c1ccc(NC(=O)N2C3CCC2CC(S(=O)(=O)c2ccccn2)C3)cc1` (centres unmarked) [Example 36, N-(4-isopropylphenyl)-3-(pyridin-2-ylsulfonyl)-8-azabicyclo[3.2.1]octane-8-carboxamide], with 32 nM. With `CC(C)(C)c1ccc(NC(=O)N2C3CCC2CC(S(=O)(=O)c2ccccn2)C3)cc1` (centres unmarked) [Example 40, N-(4-tert-butylphenyl)-3-(pyridin-2-ylsulfonyl)-8-azabicyclo[3.2.1]octane-8-carboxamide], the 50% inhibitory concentration (IC50) was found to be 125 nM. Take `CC(C)c1ccc(NC(=O)N2C3CCC2CC(S(=O)(=O)c2ncccn2)C3)cc1` (centres unmarked) [Example 37, N-(4-isopropylphenyl)-3-(pyrimidin-2-ylsulfonyl)-8-azabicyclo[3.2.1]octane-8-carboxamide]: the IC50 turned out to be 22 nM. In the case of `O=C(Nc1ccc(C(F)(F)F)cc1)N1C2CCC1CC(S(=O)(=O)c1ccc(F)cc1)C2` (centres unmarked) [Example 2, 3-(4-fluorophenyl)sulfonyl-N-[(4-trifluoromethyl)phenyl]-8-azabicyclo[3.2.1]octane-8-carboxamide], the IC50 came out at 108 nM.

Regarding `CC(C)c1ccc(NC(=O)N2C3CCC2CC(S(=O)(=O)c2ccccc2)C3)cc1` (centres unmarked) [Example 16, N-(4-isopropylphenyl)-3-phenylsulfonyl-8-azabicyclo[3.2.1]octane-8-carboxamide], the half-maximal inhibitory concentration (IC50) turned out to be 29 nM. On to `O=C(Nc1ccc(C(F)(F)F)cc1)N1C2CCC1CC(S(=O)(=O)c1ncccn1)C2` (centres unmarked) [Example 12, 3-(pyrimidin-2-ylsulfonyl)-N-[(4-trifluoromethyl)phenyl]-8-azabicyclo[3.2.1]octane-8-carboxamide], for which the IC50 was 100 nM.
